From patent US9944602B2, “Piperidinone herbicides” (E. I. DU PONT DE NEMOURS AND COMPANY, priority 2014, dated 2018)

Legend:
Assay type in all cases: in vivo
[1] = test system: barnyardgrass (Echinochloa crus-galli); assay: Test A preemergence barnyardgrass; conditions: 0 to 100 scale
Outline: (§1)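 Seeds sown in loam–sand blend received a directed preemergence soil spray; postemergence plants (2–10 cm, one- to two-leaf stage) were sprayed in the same soil. Chemicals were formulated in non-phytotoxic solvent with surfactant. After ~10 d in greenhouse, injury was rated visually against untreated controls, 0 (no effect) to 100 (complete control).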

kochia (Kochia scoparia) [2] = assay: Test A preemergence kochia; conditions: Bassia scoparia, pre-emergence, 240 h, 0 to 100 scale, 0 no effect, 100 complete control, read-out: Kochia plant response rating
Outline: as §1

[3] = test system: ragweed (common ragweed, Ambrosia elatior); assay: Test A preemergence ragweed; conditions: Ambrosia artemisiifolia, pre-emergence, 240 h, 0 to 100 scale, 0 no effect, 100 complete control, read-out: Ragweed plant response rating
Outline: as §1

[4] = test system: ryegrass, Italian (Italian ryegrass, Lolium multiflorum); assay: Test A preemergence ryegrass, Italian; conditions: Lolium multiflorum, pre-emergence, 240 h, 0 to 100 scale, 0 no effect, 100 complete control, read-out: Ryegrass, Italian plant response rating
Outline: as §1

[5] = test system: foxtail, giant (giant foxtail, Setaria faberii); assay: Test A preemergence foxtail, giant; conditions: Setaria faberi, pre-emergence, 240 h, 0 to 100 scale, 0 no effect, 100 complete control, read-out: Foxtail, Giant plant response rating
Outline: as §1

[6] = test system: pigweed (Amaranthus retroflexus); assay: Test A preemergence pigweed; conditions: Amaranthus retroflexus, pre-emergence, 240 h, 0 to 100 scale, 0 no effect, 100 complete control, read-out: Pigweed plant response rating
Outline: as §1

[7] = test system: barnyardgrass (Echinochloa crus-galli); assay: Test A postemergence barnyardgrass; conditions: Echinochloa crus-galli, post-emergence, 240 h, 0 to 100 scale, 0 is no effect, 100 is complete control, read-out: Plant response rating, Barnyardgrass
Outline: as §1

kochia (Kochia scoparia) [8] = assay: Test A postemergence kochia; conditions: Bassia scoparia, post-emergence, 240 h, 0 to 100 scale, 0 is no effect, 100 is complete control, read-out: Plant response rating, Kochia
Outline: as §1

[9] = test system: ragweed (common ragweed, Ambrosia elatior); assay: Test A postemergence ragweed; conditions: Ambrosia artemisiifolia, post-emergence, 240 h, 0 to 100 scale, 0 is no effect, 100 is complete control, read-out: Plant response rating, Ragweed
Outline: as §1

[10] = test system: ryegrass, Italian (Italian ryegrass, Lolium multiflorum); assay: Test A postemergence ryegrass, Italian; conditions: Lolium multiflorum, post-emergence, 240 h, 0 to 100 scale, 0 is no effect, 100 is complete control, read-out: Plant response rating, Ryegrass, Italian
Outline: as §1

[11] = test system: foxtail, giant (giant foxtail, Setaria faberii); assay: Test A postemergence foxtail, giant; conditions: Setaria faberi, post-emergence, 240 h, 0 to 100 scale, 0 is no effect, 100 is complete control, read-out: Plant response rating, Foxtail, Giant
Outline: as §1

[12] = test system: pigweed (Amaranthus retroflexus); assay: Test A postemergence pigweed; conditions: Amaranthus retroflexus, post-emergence, 240 h, 0 to 100 scale, 0 is no effect, 100 is complete control, read-out: Plant response rating, Pigweed
Outline: as §1

[13] = test system: wheat (Triticum aestivum); assay: Test A postemergence wheat; conditions: Triticum aestivum, post-emergence, 240 h, 0 to 100 scale, 0 is no effect, 100 is complete control, read-out: Plant response rating, Wheat
Outline: as §1

corn (Zea mays) = assay: Test A postemergence corn; conditions: Zea mays, post-emergence, 240 h, 0 to 100 scale, 0 is no effect, 100 is complete control
Outline: as §1

[14] = test system: blackgrass (Alopecurus myosuroides); assay: Test A postemergence blackgrass; conditions: Alopecurus myosuroides, post-emergence, 240 h, 0 to 100 scale, 0 is no effect, 100 is complete control, read-out: Plant response rating, Blackgrass
Outline: as §1

[15] = test system: galium (catchweed bedstraw, Galium aparine); assay: Test A postemergence galium; conditions: Galium, post-emergence, 240 h, 0 to 100 scale, 0 is no effect, 100 is complete control, read-out: Plant response rating, Galium
Outline: as §1

rice (Oryza sativa) = assay: Test B flooded paddy test rice; conditions: Oryza sativa, Table B, Flood, scale 0 to 100, read-out: Plant response rating
Outline: (§2)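 Plants at 2-leaf stage in pots flooded 3 cm above soil; compounds applied directly into paddy water, depth kept throughout.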

[16] = test system: sedge, umbrella (small-flower umbrella sedge, Cyperus difformis); assay: Test B flooded paddy test sedge, umbrella; conditions: Cyperus difformis, Table B, Flood, scale 0 to 100, read-out: Plant response rating
Outline: as §2

[17] = test system: ducksalad (Heteranthera limosa); assay: Test B flooded paddy test ducksalad; conditions: Heteranthera limosa, Table B, Flood, scale 0 to 100, read-out: Plant response rating
Outline: as §2

[18] = test system: barnyardgrass (Echinochloa crus-galli); assay: Test B flooded paddy test barnyardgrass; conditions: Echinochloa crus-galli, Table B, Flood, scale 0 to 100, read-out: Plant response rating
Outline: as §2

## O=C1NCCC(c2ccc(C(F)(F)F)cc2)C1C(=O)Nc1ccccc1Cl (stereo not shown) [Compound 13, N-(2-chlorophenyl)-2-oxo-4-[4-(trifluoromethyl)phenyl]-3-piperidinecarboxamide]
[1]; 500 g ai/ha, 0 is no effect, 100 is complete control
  Plant response rating, Barnyardgrass: 70
[1]; Echinochloa crus-galli, pre-emergence, 240 h, 125 g ai/ha, 0 no effect, 100 complete control, read-out: Barnyardgrass plant response rating
  pest or weed control at 125 g/ha: 40%
Kochia (Kochia scoparia) [2]; 125 g ai/ha
  pest or weed control at 125 g/ha: 0%
Kochia (Kochia scoparia) [2]; 500 g ai/ha
  pest or weed control at 500 g/ha: 40%
[3]; 125 g ai/ha
  pest or weed control at 125 g/ha: 0%
[3]; 500 g ai/ha
  pest or weed control at 500 g/ha: 0%
[4]; 125 g ai/ha
  pest or weed control at 125 g/ha: 0%
[4]; 500 g ai/ha
  pest or weed control at 500 g/ha: 0%
[5]; 125 g ai/ha
  pest or weed control at 125 g/ha: 70%
[5]; 500 g ai/ha
  pest or weed control at 500 g/ha: 90%
[6]; 125 g ai/ha
  pest or weed control at 125 g/ha: 0%
[6]; 500 g ai/ha
  pest or weed control at 500 g/ha: 0%
[7]; 125 g ai/ha
  pest or weed control at 125 g/ha: 30%
[7]; 500 g ai/ha
  pest or weed control at 500 g/ha: 90%
Kochia (Kochia scoparia) [8]; 125 g ai/ha
  pest or weed control at 125 g/ha: 0%
Kochia (Kochia scoparia) [8]; 500 g ai/ha
  pest or weed control at 500 g/ha: 0%
[9]; 125 g ai/ha
  pest or weed control at 125 g/ha: 0%
[9]; 500 g ai/ha
  pest or weed control at 500 g/ha: 0%
[10]; 125 g ai/ha
  pest or weed control at 125 g/ha: 0%
[10]; 500 g ai/ha
  pest or weed control at 500 g/ha: 0%
[11]; 125 g ai/ha
  pest or weed control at 125 g/ha: 30%
[11]; 500 g ai/ha
  pest or weed control at 500 g/ha: 90%
[12]; 125 g ai/ha
  pest or weed control at 125 g/ha: 0%
[12]; 500 g ai/ha
  pest or weed control at 500 g/ha: 0%
[13]; 125 g ai/ha
  plant injury at 125 g/ha: 0%
[13]; 500 g ai/ha
  plant injury at 500 g/ha: 0%
Corn (Zea mays); 125 g ai/ha
  Corn plant response rating (crop injury, 0 = no effect, 100 = complete kill) at 125 g/ha: 0%
Corn (Zea mays); 500 g ai/ha
  Corn plant response rating (crop injury, 0 = no effect, 100 = complete kill) at 500 g/ha: 0%
[14]; 125 g ai/ha
  pest or weed control at 125 g/ha: 0%
[14]; 500 g ai/ha
  pest or weed control at 500 g/ha: 0%
[15]; 125 g ai/ha
  pest or weed control at 125 g/ha: 0%
[15]; 500 g ai/ha
  pest or weed control at 500 g/ha: 0%
Rice (Oryza sativa); 250 g ai/ha
  plant injury at 250 g/ha: 0%
Rice (Oryza sativa); 1000 g ai/ha
  plant injury at 1000 g/ha: 0%
[16]; 250 g ai/ha
  pest or weed control at 250 g/ha: 0%
[16]; 1000 g ai/ha
  pest or weed control at 1000 g/ha: 0%
[17]; 250 g ai/ha
  pest or weed control at 250 g/ha: 70%
[17]; 1000 g ai/ha
  pest or weed control at 1000 g/ha: 100%
[18]; 250 g ai/ha
  pest or weed control at 250 g/ha: 0%
[18]; 1000 g ai/ha
  pest or weed control at 1000 g/ha: 40%
